# Reference: patent publication US10829441B2, “Reactive oxygen species-sensitive nitric oxide synthase inhibitors for the treatment of ischemic stroke” (The University of Toledo, priority 2017, dated 2020)
# Several values for one entry are separate records, joined by “and”; a condition that tells them apart may be missing. Equal values may be shown once. Entries after “also recorded” stand apart in the source; their conditions may differ.
# Legend:
# [1] = system: LPS-stimulated SIM-A9 cells; test: Griess assay of nitrite in LPS-stimulated SIM-A9 microglia; assay type: cell-based, mouse; conditions: LPS 100 ng/mL; for nitrite / NO production after LPS (in words): 1.0 μM to 50 μM, 24 hr (FIG. 14); for nitrite after LPS (in words): 24 hr (FIG. 15B); for decrease in nitrite: 24 hr
# Description: (§1) Human neuroblastoma SH-SY5Y cells and SIM-A9 mouse microglia (ATCC) were separately cultured on poly-D-lysine coated plates in 1:1 Dulbecco's Modified Eagle Medium/Ham's F12 (DMEM/F12) medium containing 5% fetal bovine serum, 5% horse serum, and penicillin-streptomycin. Cultures were stored in a 37° C. incubator with a 5% CO2 atmosphere. Cells were allowed to adhere overnight prior to subjection to experimental systems. 1×10^6 cells SH-SY5Y cells on 96-well plates were used for OGD experiments, and SIM-A9 cells were plated at a density of 1×10^6 on 24-well plates for Griess experiments.
# SIM-A9 cells were treated with 100 ng/mL lipopolysaccharide (LPS, Sigma) along with vehicle or drug treatment for 24 hr. Conditioned medium was then diluted 1:1 with griess reagent (0.4% naphthylethylenediamine dihydro-chloride, and 4% sulphanilamide in 10% phosphoric acid), and analyzed by colorimetry at 540 nm after […]. Nitrite levels were reported as a ratio to LPS-treated, vehicle control.
# [2] = system: phospho-Akt/total Akt ratio; test: Western blot of SH-SY5Y cells exposed to OGD: pAkt/Akt; assay type: cell-based, Human; conditions: 1.0 μM, 24 hr treatment
# [3] = HPLC-PDA analysis of nitrone decomposition in radical-generating systems; assay type: physicochemical; conditions: for decomposition to aldehyde in .OH (Fe—H2O2) system (in words) / decomposition to aldehyde in O2.^−/HO2. (KO2) system (in words) / decomposition to aldehyde in ONOO^−/HCl system (in words): 24 hr incubation at 37° C.
# Description: To a stirring solution of 5 (5.0 mg, 1.0 eq) in 785 μL PBS was added 20 μL 6 N HCl at 37° C. Peroxynitrite (200 μL of a 50 mM solution in 0.3 M NaOH, 0.5 eq) was added in 50 μL aliquots over 5 min. The reaction was allowed to stir for 1 hr and monitored by HPLC-PDA. The solution was extracted with CH2Cl2 (2×0.5 mL) and the aqueous fractions were pooled then lyophilized. Addition of ACN (1.0 mL) to the white solid followed by filtration allowed separation from the insoluble salts. Lyophilization afforded 6 as a white solid (1.2 mg, 33.7%), NMR (CD3OD, 400 MHz): δ 10.04 (1H, s), δ 7.93-7.95 (2H, m), δ 7.71-7.65 (2H, m), 4.58 (2H, s), δ 2.30 (3H, s).
# EPR spectra were collected at ambient temperature with microwave power 12.6 mW, frequency 9.86 GHz, receiver gain 1.0×10^5 or 1.0×10^4, modulation amplitude 1 G, scan time 20.48 sec, time constant 40.96 msec, and sweep width 120 G. Phosphate buffered saline (PBS) used for EPR was supplemented with diethylenetriaminepent-acetic acid (DTPA, 100 μM). ROS-generating solutions were rapidly added to solutions of indicated spin trap and taken up in 50 μL glass capillary tubes for EPR spectral acquisition. For HPLC-PDA analysis, solutions were allowed to incubate for 24 hr at 37° C., then diluted 1:1000 in 95:5 mobile phase A:B, and analyzed as above. Benzaldehyde (Sigma) was run separately as a control to compare to PBN-ROS systems and confirm PBN decomposition.
# A 50 μL final 20% PBS/DMSO solution of 35 mM 5 or PBN contained 10 μL saturated KO2 DMSO.
# A 50 μL final 30% PBS/DMSO solution of 35 mM 5 or PBN contained 90 mM FeSO4 and 1% H2O2.
# A solution of ONOO^− in 0.3 M NaOH (Cayman Chemical) was determined to be 50 mM by absorbance at 302 nm using the literature extinction coefficient (1670 M^−1cm^−1). A 50 μL final 30% PBS/DMSO solution of 5 or PBN contained 10 mM ONOO^− at pH˜6 (HCl).
# SH-SY5Y cells [4] = test: Oxygen-glucose deprivation (OGD) viability of SH-SY5Y cells (PrestoBlue); assay type: cell-based, Human; conditions: for viability relative to vehicle (in words) / viability, ratio to vehicle control: 1.5 hr OGD, 24 hr treatment
# Description: as §1
# (§2) Growth medium was removed from SH-SY5Y cells and replaced with sterile HBSS (140 mM NaCl, 3.5 mM KCl, 0.4 mM KH2PO4, 5 mM NaHCO3, 1.3 mM CaCl2, 1.2 mM MgSO4, 20 mM HEPES, pH 7.4, bubbled with 95%/5% N2/CO2), and placed in an air-tight container subsequently purged three times with 95%/5% N2/CO2. The container was then placed in a 37° C. incubator for 1.5 hr. After OGD, the cells were returned to a normoxic environment, and medium was replaced with growth medium and vehicle or treatment for 24 hr to simulate reperfusion. Sham cells were left in growth medium under a normoxic environment. Viability was measured by adding 10% Presto-Blue® Cell Viability Reagent (Thermo Fisher) for 30 min, and reading fluorescence at 560 nm/590 nm excitation/emission. Viability is reported as a ratio to vehicle-treated control, and readings result from separate OGD experiments (e.g. n=6 was from 6 different OGD assays). The experimental furoxan IS-1-41 was used as a positive control for OGD viability due to its reproducible protection in this paradigm.
# SH-SY5Y cells [5] = test: OGD-induced formation of 6 from 5 in SH-SY5Y cells by LC-MS/MS; assay type: cell-based, Human; conditions: for level of 6 as 6:5 AUC: cell lysate (intracellular); for level of 6: supernatant
# Description: as §2
# (§3) Synthesized 5, and purchased 4(1H-Imidazol-1-yl)benzaldehyde (IBA, Sigma) were used to determine LC-MS/MS fragmentation. A solution of 5+ONOO^−/HCl from EPR studies was used for 6 fragmentation. MRM analysis of IBA (m/z 173.10→91.10, 104.10, 117.05; RT: 4.13 min), 5 (m/z 248.20→148.00, 134.15, 190.05; RT: 4.81 min), and 6 (m/z 177.00→119.10, 90.95, 65.15; RT: 3.87 min) were determined. A standard curve for 5 was generated using pure samples applied to blank matrix (0.01 μM, 0.1 μM, 0.5 μM, 1.0 μM, and 5.0 μM; R2=0.99) using the above HPLC solvents and LC curve at 0.4 mL/min.
# (§4) In vitro supernatant samples were spiked with internal standard (200 μL 500 nM IBA in 2% FA) and used as collected, while cells were detached by trypsin, centrifuged (14 k rpm, 5 min, 4° C.) to isolate the pellet, then lysed by sonication (Sonic Dismembrator 500, Fisher) in 1 mL cold PBS+internal standard. Blood samples (100 μL) were spiked with internal standard, and centrifuged to collect the supernatant. Brain samples were weighed, homogenized by a Bullet Blender Storm (Next Advance Inc.) in 500 μL cold PBS+internal standard for 1 min at 4° C., then centrifuged to collect the supernatant. All samples were then worked up by solid phase extraction (Evolute Ex-press ABN cartridge, 30 mg/l mL, Biotage) using a Vac-master manifold (Biotage). Columns were washed with dH2O (1 mL), and analytes were eluted with MeOH (1 mL) and evaporated to dryness by high flow air purge. Samples were reconstituted in 200 μL 95:5 mobile phase A:B and analyzed by LC-MS/MS (2.0 μL injection volume). All samples were run in duplicate, and AUC for 5 and 6 were normalized to the intra-run IBA AUC to account for loss during workup. 5 concentrations were determined using std. curve, while 6 was expressed as a percentage of 5 AUC.
# cleaved caspase-3 = test: Western blot of SH-SY5Y cells exposed to OGD: cleaved caspase-3; assay type: cell-based, Human; conditions: 1.0 μM, 24 hr treatment, vs vehicle
# [6] = Plasma and brain levels of 5 and 6 by LC-MS/MS 25 min after intravenous administration; assay type: in vivo, C57BL/6 mice
# Description: (§5) Animals were anesthetized and the incision was performed as above to expose the temporal bone, through which the MCA was visible. The end of a fiber optic cable fitted to a MoorVMS-LDF Laser Doppler Monitor (Moor Instruments) was positioned in place over the MCA. The baseline CBF as flux was monitored for 5 min prior to intravenous injection by lateral tail vein of normal saline vehicle, […] (20 mg/kg), or 5. Measurements were taken every 5 minutes in triplicate for each animal, and reported as ratio to baseline. Animals were sacrificed at 25 min by CO2 inhalation, blood was collected into K2EDTA coated tubes (BD Microtainer®), and brains were rapidly dissected out and frozen on dry ice for LC-MS/MS analysis.
# as §3, §4
# [7] = system: cerebral blood flow (CBF); test: Laser Doppler cerebral blood flow (CBF) over the MCA of anesthetized mice; assay type: in vivo, C57BL/6 mice; conditions: for time point at which CBF increased: isoamyl nitrate vs low dose of 5 (1 mg/kg), intravenous
# Description: as §5
# [8] = system: permanent MCA occlusion (pMCAO); assay type: in vivo
# 3-Nitrotyrosine (3-NT) = test: Western blot of SH-SY5Y cells exposed to OGD: 3-nitrotyrosine; assay type: cell-based, Human; conditions: 1.0 μM, 24 hr treatment, vs vehicle
# [9] = 25 min after intravenous 5, n=6
smiles,measurement,setting,value
"CC(C)(C)[N+]([O-])=Cc1ccccc1 [PBN, N-tert-butyl-α-phenylnitrone, reference compound]",nitrite / NO production after LPS (in words),[1],not observed to cause a reduction in nitrate
same,nitrite after LPS (in words),[1]; 1.0 μM,attenuated
same,phospho-Akt/total Akt ratio (in words),[2],"increase was also observed; also recorded: increase in Akt phosphorylation, although not significant"
same,decomposition to aldehyde in .OH (Fe—H2O2) system (in words),[3],minor formation
same,decomposition to aldehyde in O2.^−/HO2. (KO2) system (in words),[3],Significant BnA formation
same,decomposition to aldehyde in ONOO^−/HCl system (in words),[3],Significant BnA formation
same,viability relative to vehicle (in words),SH-SY5Y cells [4]; 0.05 μM to 100 μM,did not approach significance at any concentration tested
"CC(=N)NCc1cccc(CN)c1 [1400W, reference compound]",nitrite / NO production after LPS (in words),[1],anti-inflammatory ability
same,nitrite after LPS (in words),[1]; 1.0 μM,attenuated
"CC(=N)NCc1cccc(/C=[N+](\[O-])C(C)(C)C)c1 [compound 5, N-tert-butyl-α-(3-[ethanimidamidomethyl]phenyl)nitrone]",nitrite / NO production after LPS (in words),[1],not observed to lower NO production
same,nitrite after LPS (in words),[1]; 1.0 μM,attenuated
same,phospho-Akt/total Akt ratio,[2]; vs vehicle,4.1 times higher
same,cell permeability (in words),SH-SY5Y cells [5],cell permeable
same,cleaved caspase-3 reduction,cleaved caspase-3,47%
same,conversion of 5 to 6 by HPLC-PDA,"[3]; 0.50 eq ONOO^−, PBS/HCl pH 6, 37° C., after one hour",95.4%
same,decomposition to aldehyde in .OH (Fe—H2O2) system (in words),[3],substantial formation of 6; also recorded: Minor 6 formation
same,decomposition to aldehyde in O2.^−/HO2. (KO2) system (in words),[3],substantial formation of 6; also recorded: significant 6 formation
same,decomposition to aldehyde in ONOO^−/HCl system (in words),[3],complete conversion; also recorded: no observed 5 remaining
same,Kp at 25 min,"[6]; C57BL/6, mouse, in vivo",0.029 ± 0.01
same,half-life (in words),"[6]; mouse, in vivo",short half-life
same,CBF over 20 min,[7]; 1 mg/kg intravenous,126%±4.6%
same,CBF over 20 min,[7]; 10 mg/kg intravenous,102%±0.7%
same,time point at which CBF increased,[7],5 min
same,tolerability / adverse effects,[8]; 10 mg/kg and 1 mg/kg intravenous,well tolerated
same,forelimb grip strength (in words),"[8]; 24, 48, 72 hr after pMCAO",improved grip strength
same,rota rod performance (in words),"[8]; 24, 48, 72 hr after pMCAO",No significant differences
same,"Neurological deficit scoring (NDS), 28-point system","[8]; 72 hr after pMCAO, 10 mg/kg iv at 3 and 6 hr, then 1 mg/kg twice daily",4.2±0.4
same,decrease in infarct volume compared to vehicle,"[8]; TTC staining 72 hr after pMCAO, 10 mg/kg iv at 3 and 6 hr, then 1 mg/kg twice daily",> 30% and 37%
same,"viability, ratio to vehicle control",SH-SY5Y cells [4]; 0.1 μM,1.21 times greater than vehicle
same,"viability, ratio to vehicle control",SH-SY5Y cells [4]; 1.0 μM,2.57 times greater than vehicle
same,viability relative to vehicle (in words),SH-SY5Y cells [4]; 100 μM,"decline to baseline; also recorded: not observed to be toxic, but rather non-neuroprotective"
same,optimal dose (highest neuroprotection),SH-SY5Y cells [4]; dose-finding study 0.05 μM to 100 μM,1.0 µM
same,3-NT ameliorated,3-Nitrotyrosine (3-NT),48%
"CC(=N)NCc1cccc(C=O)c1 [compound 6, N-[(3-formylphenyl)methyl]ethanimidamide]",nitrite / NO production after LPS (in words),[1],dose-dependent decrease in nitrite
same,decrease in nitrite,[1]; 1.0 μM,~19%
same,decrease in nitrite,[1]; 50 μM,−33%
same,level of 6 as 6:5 AUC,SH-SY5Y cells [5]; OGD-exposed cells treated 24 hr with 10 μM 5,129 % 6:5 AUC
same,level of 6 as 6:5 AUC,SH-SY5Y cells [5]; sham cells treated 24 hr with 10 μM 5,29 % 6:5 AUC
same,level of 6,SH-SY5Y cells [5]; OGD-exposed cells treated with 5,18.6 % of 5 AUC
same,level of 6,SH-SY5Y cells [5]; sham cells treated with 5,7.88 % of 5 AUC
same,level of 6 in brain,[6]; [9],24.5%±0.1%
same,level of 6 in plasma,[6]; [9],12.7%±0.2%
"CC(C)CCO[N+](=O)[O-] [isoamyl nitrate, reference compound]",CBF over 20 min,[7]; 20 mg/kg intravenous,111%±4.0%
same,time point at which CBF increased,[7],20 min
